Drawing on ChEMBL document CHEMBL1148862, “Evaluation of the anti-hepatitis C virus effect of novel potent, selective, and orally bioavailable JNK and VEGFR kinase inhibitors” (Bioorg Med Chem Lett, 2007), this text covers EC50 and CC50 for 29 molecules.

In one series the test system is Hepatitis C virus. Briefly: Antiviral activity against HCV in Huh7-Rep cells by luciferase assay. The series is classed as functional, organism-based, Hepacivirus hominis.
Series [1] can be described thus: Cytotoxicity against Huh7 cells by luciferase assay. Type of series: cell-based, Huh-7. Particulars: human.
The nature of series [2]: Cytotoxicity against MT4 cells by luciferase assay. The series is classed as cell-based. Particulars: human.

By EC50 is commonly meant the concentration giving half of the maximal effect. In general, CC50 refers to the concentration at which the toxic effect on the cells reaches its halfway point. A high value points to lower toxicity to the cells.

Molecules are shown by their SMILES. Some results are limits rather than exact numbers.

In turn, `Fc1ccc(Cl)cc1-c1nc(Nc2ccncc2)c2nccnc2n1` yielded an EC50 in the series with Hepatitis C virus of 0.89 µM. Also, the CC50 in series [1] and in series [2] was more than 25 µM each time.

`COc1cnc(-c2cc(Cl)ccc2F)nc1Nc1ccncc1C(=O)NCCN` registered an EC50 in the series with Hepatitis C virus of 3.6 µM. Also, the 50% cytotoxic concentration (CC50) in series [1] stood at 5.5 µM; in series [2], 4.7 µM.

As to `COc1cnc(-c2cc(Cl)ccc2F)nc1Nc1ccncc1C(=O)NCCCN1CCCCC1C` (configuration not stated), in the series on Hepatitis C virus, the EC50 was 0.55 µM. Besides, the 50% cytotoxic concentration (CC50) was 3.6 µM in series [1] and 3.3 µM in series [2].

The molecule `CN(c1ccncc1)c1nc(-c2cc(Br)ccc2F)nc2nccnc12` showed a concentration for a half-maximal effect (EC50) in the series on Hepatitis C virus of 3.65 µM. Besides, the cytotoxic concentration (CC50) in series [1] and in series [2] was more than 32 µM in each case.

Take `Cc1cnccc1Nc1nc(-c2cc(Cl)ccc2F)nc2nccnc12`: the EC50 in the series with Hepatitis C virus was found to be 2 µM. Further, the CC50 in series [1] and in series [2] was more than 32 µM in each case.

`Clc1cccc(-c2nc(Nc3ccncc3)c3nccnc3n2)c1` registered a concentration giving a half-maximal response (EC50) with Hepatitis C virus of 1.67 µM. Besides, the CC50 in series [1] and in series [2] was more than 32 µM each time.

Consider `Oc1nc(-c2cc(Cl)ccc2F)nc2nccnc12`, for which the half-maximal effective concentration (EC50) in the series on Hepatitis C virus is more than 50 µM. Besides, the CC50 in series [1] and in series [2] was more than 25 µM throughout.

`COc1cnc(-c2cc(Cl)ccc2F)nc1Nc1ccncc1C(=O)NCCCn1ccnc1` returned an EC50 in the series on Hepatitis C virus of 0.92 µM. The figures for the CC50 in series [1] and in series [2] were 15.3 µM and 8.1 µM, respectively.

As to `CN(c1ccccc1)c1nc(-c2cc(Br)ccc2F)nc2nccnc12`, the EC50 with Hepatitis C virus is 1.98 µM. Further, the CC50 in series [1] and in series [2] was more than 32 µM each time.

On to `Fc1ccc(Br)cc1-c1nc(Nc2ccncc2)c2nccnc2n1`, for which the half-maximal effective concentration (EC50) in the series on Hepatitis C virus was determined as 0.35 µM. For the same molecule, the CC50 in series [1] and in series [2] was more than 32 µM in each case.

Molecule `CCCCN(c1ccncc1)c1nc(-c2cc(Br)ccc2F)nc2nccnc12` registered an EC50 in the series with Hepatitis C virus of 2.2 µM. The CC50 in series [1] and in series [2] was more than 32 µM each time.

Molecule `COc1cnc(-c2cc(Cl)ccc2F)nc1Nc1ccncc1C(=O)NCCNCCO` returned an EC50 in the series on Hepatitis C virus of 0.85 µM. In addition, the CC50 in series [1] and in series [2] was more than 32 µM in each case.

In turn, `CCOC(=O)CNC(=O)c1cnccc1Nc1nc(-c2cc(Cl)ccc2F)ncc1OC` registered a concentration giving a half-maximal response (EC50) with Hepatitis C virus of 4.6 µM. Besides, the cytotoxic concentration (CC50) in series [1] and in series [2] was more than 32 µM throughout.

`CCc1cnccc1Nc1nc(-c2cc(Cl)ccc2F)nc2nccnc12` came in with an EC50 with Hepatitis C virus of 0.71 µM. For the same molecule, the cytotoxic concentration (CC50) in series [1] and in series [2] was more than 32 µM throughout.

The molecule `COc1cnc(-c2cc(Cl)ccc2F)nc1Nc1ccncc1C(=O)NCCCN(C)C` had a concentration giving a half-maximal response (EC50) in the series on Hepatitis C virus of 0.59 µM. The CC50 in series [1] is 15.8 µM; in series [2], 5 µM.

`COc1cnc(-c2cc(Cl)ccc2F)nc1Nc1ccncc1C(=O)NC1CCN(C(=O)OC(C)(C)C)CC1`: in the series with Hepatitis C virus, the response was half-maximal at 1 µM (EC50). Besides, the values for the half-maximal cytotoxic concentration (CC50) in series [1] and in series [2] were 4 µM and 3.9 µM, respectively.

`Cc1cnccc1Nc1nc(-c2cc(Br)ccc2F)nc2nccnc12` yielded a concentration for a half-maximal effect (EC50) in the series with Hepatitis C virus of 0.8 µM. Further, the CC50 in series [1] and in series [2] was more than 32 µM throughout.

In the series on Hepatitis C virus, `COc1cnc(-c2cc(Cl)ccc2F)nc1Nc1ccncc1C(=O)NC[C@H]1CCCO1` came in with a concentration for a half-maximal effect (EC50) of 2.6 µM. In addition, the 50% cytotoxic concentration (CC50) in series [1] and in series [2] was more than 32 µM in each case.

Take `Fc1ccc(Br)cc1-c1nc(Nc2ccccc2)c2nccnc2n1`: the concentration giving a half-maximal response (EC50) in the series with Hepatitis C virus was 4 µM. Also, the half-maximal cytotoxic concentration (CC50) in series [1] and in series [2] was more than 32 µM each time.

Regarding `COc1cnc(-c2cc(Cl)ccc2F)nc1Nc1ccncc1C(=O)NCC(F)(F)F`, in the series on Hepatitis C virus, a half-maximal response (EC50) required 1.2 µM. Further, the half-maximal cytotoxic concentration (CC50) in series [1] and in series [2] was more than 32 µM in each case.

As to `Cc1ccccc1Nc1nc(-c2cc(Br)ccc2F)nc2nccnc12`, in the series with Hepatitis C virus, the EC50 stood at 6.4 µM. Further, the CC50 in series [1] and in series [2] was more than 32 µM in each case.

In turn, `COc1cnc(-c2cc(Cl)ccc2F)nc1Nc1ccncc1C(=O)NCCCN1CCCC1=O` returned a half-maximal effective concentration (EC50) with Hepatitis C virus of 0.084 µM. For the same molecule, the 50% cytotoxic concentration (CC50) was 17.7 µM in series [1] and 5.8 µM in series [2].

With `COc1cnc(-c2cc(Cl)ccc2F)nc1Nc1ccncc1C(=O)NCCNCC(C)O` (configuration not stated), in the series on Hepatitis C virus, the concentration for a half-maximal effect (EC50) was determined as 9.6 µM. In addition, the CC50 in series [1] and in series [2] was more than 32 µM throughout.

With `FC(F)(F)c1cccc(-c2nc(Nc3ccncc3)c3nccnc3n2)c1`, it took 1.91 µM to reach a half-maximal effect with Hepatitis C virus (EC50). In addition, the CC50 in series [1] and in series [2] was more than 25 µM each time.

As to `Fc1ccc(Br)cc1-c1nc(N(Cc2ccccc2)c2ccncc2)c2nccnc2n1`, in the series with Hepatitis C virus, the half-maximal effective concentration (EC50) worked out at 0.99 µM. Besides, the CC50 in series [1] and in series [2] was more than 32 µM each time.

In the series with Hepatitis C virus, `Fc1ccc(Br)cc1-c1nc(N(CCc2ccccc2)c2ccncc2)c2nccnc2n1` had an EC50 of 1.96 µM. The half-maximal cytotoxic concentration (CC50) in series [1] was found to be 22.2 µM; in series [2] it was 11 µM.

Molecule `Fc1ccccc1-c1nc(Nc2ccncc2)c2nccnc2n1` yielded a concentration giving a half-maximal response (EC50) in the series on Hepatitis C virus of 9.95 µM. Also, the CC50 in series [1] and in series [2] was more than 25 µM each time.

For the molecule `COc1cnc(-c2cc(Cl)ccc2F)nc1Nc1ccncc1C(=O)NCCCN1CCOCC1`, a half-maximal effect with Hepatitis C virus (EC50) was put at 2.5 µM. The values for the CC50 in series [1] and in series [2] were 17.1 µM and 15.4 µM, respectively.

For `Cc1cc(Nc2nc(-c3cc(Br)ccc3F)nc3nccnc23)ccn1`, the response in the series with Hepatitis C virus was half-maximal at 3.6 µM (EC50). For the same molecule, the CC50 stood at 12.9 µM in series [1] and 13.2 µM in series [2].
